Measurements reported in US8691772B2, “HSP60, HSP60 peptides and T cell vaccines for immunomodulation” (Yeda Research and Development Co. Ltd., priority 2005, dated 2014).
Ends that are not written are not given here.

What was measured:
SOCS3 = SOCS3 expression in human T cells (immunoblot); assay type: cell-based; settings: for effect of blocker on HSP60-induced SOCS3 activation: human T cells pre-treated with blocker
HSP60 = HSP60 expression in activated T cells by western blot; assay type: cell-based, Lewis rats; settings: LNC with Con A; A2b clone with peptide, 72 hr
Method: Western blotting. Cell lysates of resting or activated T cells were prepared by treatment for 15 minutes in the following lysis buffer: NP40 1%, NaCl 0.9%, Tris 50 mM, EDTA 1 mM, PMSF 0.4 mM, pepstatin A 4 μg/ml, leupeptin 4 μg/ml and aprotinin 4 μg/ml. The lysates were centrifuged for 15 min at 14000 rpm and the protein concentration in the supernatant was determined using a BCA protein assay kit (Pierce, Rockford, Ill., USA). The lysates were subjected to PAGE-SDS using a mini-gel apparatus (Bio-Rad Laboratories, Hercules, Calif.); 100 μg of each sample were loaded per well. Two identical gels were run each time in parallel: one gel was stained with Coomassie Brilliant Blue R-250 according to the manufacturer's protocol (Bio-Rad) and the other was electro-transferred to nitrocellulose membranes (Schleicher and Schuell, Dassel, Germany).
The nitrocellulose membranes were washed with PBS and then blocked for 1 hr with 2% bovine serum albumin (Sigma), 2.5% milk powder (Bio-Rad), Tris (Sigma) pH 7.5 10 mM, NaCl 150 mM and 0.02% thimerosal (Sigma). […] Finally, the membranes were developed using the Western Blotting Luminol Reagent (Santa Cruz Biotechnology Inc., Santa Cruz, Calif., USA), exposed to X-ray film and quantified using the NIH Image 1.63 program (National Institutes of Health, USA). Size was determined using pre-stained broad-range protein standard markers (Bio-Rad).

activated A2b T cells [1] = experiment: Anti-ergotypic T-cell proliferation assay; assay type: cell-based, Lewis rats; settings: rats vaccinated with peptide in IFA, 26 days after AA induction; compared to Mt3
Source text: (§1) T-cell lines and clones T-cell lines were raised and expanded using antigen presenting cells (APC) and antigens or peptides as described (Mor et al., 1992). Three Lewis rat T-cell lines were used in our experiments: Anti-HSP60, raised against recombinant human HSP60 (human HSP60 is 97% identical to rat HSP60 at the aa level); Anti-p277, raised against the p277 peptide of human HSP60 (96% identical its rat counterpart at the aa level) and Anti-MBP, raised against guinea pig MBP. For ergotypic stimulation, the A2b T-cell clone, specific for the 180-188 epitope of HSP65 (van Eden et al., 1988) was used; similar results were obtained when other rat T-cell clones were used as targets. A2b expresses MHC-I molecules constitutively and CD80, CD86 and MHC-II molecules upon activation, and can present peptide epitopes to T cells. Activated A2b cells were used on day 3 of their stimulation, and resting A2b cells were used on day 14-16 of their rest cycle, unless stated otherwise.
DNA and peptide vaccination. The vectors containing the full-length cDNA of the human hsp60 gene (pHSP60) or the cDNA corresponding to aa 1-140 (pI) or aa 130-260 (pII) have been previously described (Quintana et al., 2002, Quintana et al., 2002b, Quintana et al., 2003, Quintana et al., 2000). […]
Anti-ergotypic T-cell proliferation assay. […] The cultures were harvested and cpm were determined using a beta counter. […]

AA = settings: DNA or peptide vaccination; Quintana et al., Ragno et al.; cited from earlier work
activated A2b T cells [2] = experiment: Anti-ergotypic cytokine response (cytokine assays); assay type: cell-based, Lewis rats; settings: rats vaccinated with peptide in IFA; response to activated A2b T cells
Source text: as §1
Cytokine assays. Supernatants were collected after 72 hr of stimulation with test antigens or stimulator cells. Pharmingen's OPTEIA IL-10, IL-4 and IFNγ kits (Pharmingen, San Diego, USA) and the TGFβ1 Emax® ImmunoAssay System (Promega, Madison, USA) were used to quantify cytokine release to culture supernatants, as previously described (Quintana et al., 2002b). […]

ConA-induced hepatitis = ConA-induced hepatitis (acute liver injury); assay type: in vivo, BALB/c mice
diabetes = settings: single subcutaneous injection in mineral oil; cited from earlier work
[3] = system: Mouse splenic purified T cells; experiment: Anti-CD3-induced T-cell proliferation; assay type: cell-based, C57BL/6J mice; settings: for anti-CD3-induced T-cell proliferation: summary of Table 1
Source text: Purification of naïve T cells: Mouse spleen-cell suspensions were depleted of red blood cells by treatment with red blood lysis buffer (Sigma, St Louis, USA). T cells were then purified by negative selection with a T-cell isolation kit containing biotin-conjugated monoclonal antibodies to CD11b, CD45R, DX5 and Ter-119 (Miltenyi Biotec, Bergisch Gladbach, Germany). This procedure routinely yielded T cell preparations that were >95% positive for the CD3 marker as determined by FACS analysis.
Cells and medium: The T-cells cultures were set in RPMI-1640 supplemented with 5% FCS (Hyclon Logan, Utah) 100 U/ml penicillin, 100 μg/ml streptomycin, 50 μM 2β-ME, 12.5 mM hepes, 2 mM L-glutamine, 1 mM sodium pyruvate and non essential amino acids (biological industries 01-340-1 diluted 1:100).
The hamster anti-mouse anti-CD3 antibody was collected by TCA precipitation from 2C11 hybridoma supernatant. For the proliferation assay, non-tissue culture-treated polystyrene flat-bottom 96-well microtiter plates (Nunc 269787) were incubated overnight at 4° C. with 0.5-2 μg/ml anti-CD3 antibody.
(§2) T-cell proliferation: Mouse splenic purified T cells (1×10^5) were pre-incubated with the p277 analogs p277(Val^6Val^11) (SEQ ID NO:2) or p277(Ser^6Ser^11) (SEQ ID NO:3) at the indicated concentrations for 30-60 min, and transferred to anti-CD3 coated wells in triplicate or quadruplicate in 200 μl culture medium. After 72 h of incubation (37° C., 5% CO2) the cells were pulsed with 1 μCi [^3H]-thymidine for 7 h, and [^3H] thymidine incorporation was measured using a 96-well plate beta-counter. The mean cpm±Standard Error were calculated for each triplicate or quadruplicate.

[4] = system: Mouse splenic purified T cells; experiment: Anti-CD3-induced IFNγ secretion (ELISA); assay type: cell-based, C57BL/6J mice; settings: for anti-CD3-induced IFNγ secretion: summary of Table 1
Method: as §2
Interferon-gamma (IFNγ) secretion to the culture media was determined by using an ELISA assay (OptiEIA kits, BD Pharmingen and Pierce Endogen) following the manufacturer's instructions. Standard curves were established using mouse recombinant cytokines. The assay detection limit was 16-32 pg/ml.

CD4^+CD25^+ T cells = experiment: Co-culture of treated CD4+CD25+ T cells with CD4+CD25- T cells; assay type: cell-based, human; settings: CD4+CD25+ treated with peptide 1 ng/ml, 2 hours; co-culture with untreated CD4+CD25-
[5] = i.p. 330 μl, 500 ng/ml, 18 and 1 hr prior to ConA, 24 hr after ConA

Compound: N#C/C(=C/c1ccc(O)c(O)c1)C(=O)NCc1ccccc1 [AG490, reference compound]
- effect of blocker on HSP60-induced SOCS3 activation (SOCS3): abrogated the effect of HSP60on SOCS3 expression

Compound: Concanavalin A [Con A]
- expression levels of HSP60 (western blot) (HSP60): triggered a similar increase in the expression levels of HSP60

Compound: EESNTFGLQLELTEG [Mt176-90]
- expression levels of HSP60 (western blot) (HSP60): up-regulation of HSP60

Compound: KFGADARALMLQGVDLLADA [Hu3]
- anti-ergotypic proliferative response of LNC (activated A2b T cells [1]): significantly (p<0.05) more effective in inducing an anti-ergotypic proliferative response
- inhibition of AA by vaccination (AA): can also inhibit AA
- anti-ergotypic cytokine secretion (IFNγ, TGFβ1, IL-10, IL-4) (activated A2b T cells [2]): secreted IFNγ and TGFβ1, but not IL-10 or IL-4

Compound: VAGGGVTLLQAAPTLDELKLEG [MTp277, reference compound]
- serum level of IL-10 (ConA-induced hepatitis; 2 hr after ConA): did not seem to have a significant effect on the levels of cytokines
- serum level of TNF-α (ConA-induced hepatitis; 2 hr after ConA): did not seem to have a significant effect on the levels of cytokines

Compound: VLGGGSALLRSIPALDSLTPANED [p277(Ser^6Ser^11)]
- incidence of diabetes (diabetes): did not reduce the incidence of diabetes
- anti-CD3-induced T-cell proliferation [3]: inhibited T-cell proliferation and IFNγ secretion
- Percent Inhibition of IFNγ secretion ([4]; peptide 0.1 ng/ml): 86.6% ± 11.3%
- Percent Inhibition of IFNγ secretion ([4]; peptide 1 ng/ml): 86.4% ± 1.3%
- Percent Inhibition of IFNγ secretion ([4]; peptide 10 ng/ml): 82.6% ± 4.75%
- anti-CD3-induced IFNγ secretion [4]: inhibited T-cell proliferation and IFNγ secretion

Compound: VLGGGVALLRVIPALDSLTPANED [p277(Val^6Val^11)]
- Percent Inhibition of proliferation ([3]; peptide 0.1 ng/ml): 50% ± 19%
- Percent Inhibition of proliferation ([3]; peptide 1 ng/ml): 73% ± 7.5%
- Percent Inhibition of proliferation ([3]; peptide 10 ng/ml): 69% ± 14%
- anti-CD3-induced T-cell proliferation [3]: inhibited T-cell proliferation and IFNγ secretion
- IFN-γ and TNF-α secretion, and proliferation in co-culture (CD4^+CD25^+ T cells): significantly inhibited IFN-γ and TNF-α secretion, and proliferation
- Percent Inhibition of IFNγ secretion ([4]; peptide 0.1 ng/ml): 94% ± 0.81%
- Percent Inhibition of IFNγ secretion ([4]; peptide 1 ng/ml): 88.9% ± 3.4%
- Percent Inhibition of IFNγ secretion ([4]; peptide 10 ng/ml): 86.7% ± 8.8%
- anti-CD3-induced IFNγ secretion [4]: inhibited T-cell proliferation and IFNγ secretion
- expression of activated SOCS3 (SOCS3): induced a marked expression of activated SOCS3 in T cells
- serum level of IL-6 (ConA-induced hepatitis; 2 hr after ConA): increased the level of IL-6
- serum level of IL-10 (ConA-induced hepatitis; 2 hr after ConA): significantly increased
- serum level of TNF-α (ConA-induced hepatitis; 2 hr after ConA): significantly decreased
- serum ALT (ConA-induced hepatitis; [5]): significantly inhibited ALT and AST secretion
- serum AST (ConA-induced hepatitis; [5]): significantly inhibited ALT and AST secretion

Compound: pertussis toxin [reference compound]
- effect of blocker on HSP60-induced SOCS3 activation (SOCS3): had no effect

Compound: polymyxin B [PMB, reference compound]
- effect of blocker on LPS-induced SOCS3 activation (SOCS3; LPS 100 ng/ml): inhibited by PMB
